Assay results taken from patent US8952149B2, “Tricyclic tetrahydroquinoline antibacterial agents” (Zoetis LLC, priority 2012, dated 2015).
Converted amounts (≈) assume the structure as drawn.

Key:
S. pyogenes 02C0203 [1] = assay: Neutropenic soft tissue (thigh abscess) infection model; type: in vivo, CF-1 female mice; conditions: thigh tissue 24 hours post-dose
Experimental: In this example, the in vivo antibacterial efficacy of selected compounds was determined in a neutropenic soft tissue infection model in CF-1 female mice challenged with Streptococcus pyogenes 02C0203. With the exception of modifications discussed here, the murine soft tissue infection model was previously described by Craig et al. (6, 7, 8).
CF-1 female mice were immunosuppressed with oral doses of cyclophosphamide in sterile water on Day-4 (150 mg/kg) and Day-1 (100 mg/kg). Mice were infected intramuscularly (thigh muscle) with 7×10^5 cfu of S. pyogenes 02C0203 in 0.1 ml brain heart infusion broth on Day 0. Two hours post-infection, mice received a single oral dose of selected compounds. The compounds were administered orally from a spray dried dispersion (SDD) in 0.5% (wt/v) methylcellulose (MC), 0.5% (wt/v) hydroxypropyl methylcellulose acetate succinate medium, fine powder (HPMCAS-MF) in 20 mM Tris buffer (pH 7.4). Thigh tissue was collected 24 hours post-dose. Serial ten-fold dilutions of tissue homogenates prepared in sterile phosphate buffered saline were plated on 5% sheep blood agar plates for enumeration of bacterial burden.
(§1) Separate groups of immunosuppressed mice were infected as above and orally dosed 2 hours post-infection with 100 mg/kg of the selected compounds. Thigh tissue samples (10% in PBS) and plasma were collected at 0.5, 1, 2, 4, 8 and 24 hours post-dose (n=3) for quantitation of drug levels. Bacterial burden was quantitated in the thigh tissue samples from treated mice and from infected, untreated mice at each timepoint.

S. pyogenes 02C0203 [2] = assay: In vitro MIC testing by microbroth dilution; type: cell-based, Streptococcus pyogenes; conditions: for antibacterial activity (in words): S. pyogenes 02C0203; for MIC: Streptococcus pyogenes, 02C0203, microbroth dilution, 35° C., 16 to 24 hours
Experimental: Except for clarifying or modifying statements, MIC testing followed procedures recommended by the NCCLS^1-2 or followed the descriptions cited below.
At least the following organisms are included in the screen: S. pyogenes 02C0203. Incubations were at 35° C. Stock bacterial cultures were maintained on Tryptic Soy Agar containing 5% Sheep Blood (BD, Becton Dickinson Microbiology Systems, Cockeysville, Md.), anaerobes were maintained on Anaerobic Blood Agar plates—CDC Formulation (BD), and fastidious organisms were maintained on Chocolate Agar II Plates (BD). Specific conditions of handling are listed below.
Frozen stock cultures were used as the initial source of organisms for performing microbroth dilution MIC testing. Stock cultures were passed on their standard growth medium for at least 1 growth cycle (18 to 24 hours) prior to their use.
Most bacteria, unless otherwise noted, were prepared directly from agar plates in 10 mL aliquots of the appropriate broth medium. Bacterial cultures were adjusted to the opacity of a 0.5 McFarland Standard (optical density value of 0.28-0.33 on a Perkin-Elmer Lambda EZ150 Spectrophotometer Wellesley, Mass., set at a wavelength of 600 nm). The adjusted cultures were diluted 400 fold (0.25 mL inoculum+100 mL broth) in growth media to produce a starting suspension of approximately 5×10^5 colony forming units (CFU)/mL. Unless otherwise noted, bacterial strains were tested in cation adjusted Mueller Hinton Broth (CAMHB).
Compounds were solubilized in DMSO. Drug stock solutions were prepared on the day of testing. Drugs were weight corrected for assay content where necessary.
Microbroth dilution stock plates were prepared in two dilution series, 64 to 0.06 μg drug/mL and 0.25 to 0.00025 μg drug/mL. For the high concentration series, 200 μL of stock solution ([…]) was added to duplicate rows of a 96-well microtiter plate. This was used as the first well in the dilution series. Serial two-fold decremental dilutions were made using a BioMek FX robot (Beckman Coulter Inc., Fullerton, Calif.) with 10 of the remaining 11 wells, each of which contained 100 μL of the appropriate solvent/diluent. Row 12 contained solvent/diluent only and served as the control. For tube one of the low concentration series, 200 µL of an 8 μg/mL stock was added to duplicate rows of a 96-well plate. Serial two-fold dilutions were made as described above.
Daughter plates were spotted (3.2 μL/well) from the stock plates listed above using the BioMek FX robot and were either used immediately or frozen at −70° C. until use.
Aerobic organisms were inoculated (100 μL volumes) into the thawed plates using the BioMek FX robot. The inoculated plates were placed in stacks of no more than 5 and covered with an empty plate. These plates were incubated 16 to 24 hours in ambient atmosphere according to CLSI guidelines^2.
After inoculation and incubation, the degree of bacterial growth was estimated visually with the aid of a Test Reading Mirror (Dynex Technologies 220 16) in a darkened room with a single light shining directly through the top of the microbroth tray. The MIC was the lowest concentration of drug that prevented macroscopically visible growth under the conditions of the test. Testing was performed in duplicate. When the MIC values in duplicate tests varied by 1 well (2-fold), the […] values were reported. If the MICs varied by 2 dilutions, the middle value was reported. […]

S. pyogenes 02C0203 [3] = assay: AUC/MIC ratios required for efficacy (PK-PD); type: in vivo; conditions: free AUC required for efficacy against S. pyogenes 02C0203 in mice
Experimental: (§2) In this example, the plasma concentrations of selected compounds were determined in mice that were infected with S. pyogenes 02C0203 at an oral dose of 100 mg/kg^4. Plasma samples were assayed for selected compounds using LC/MS/MS with multiple reaction monitoring. Free fractions were measured using equilibrium dialysis^5.
as §1

[4] = Plasma concentrations in infected mice after an oral dose (LC/MS/MS); type: in vivo; conditions: for concentration at 0.5 h / concentration at 1 h / concentration at 2 h / concentration at 4 h / concentration at 8 h / concentration at 24 h: CF-1, mouse, plasma, infected mice (n = 3), oral 100 mg/kg; for oral exposure (in words): mice infected with S. pyogenes 02C0203, 100 mg/kg
Experimental: as §2, §1

Compound	Log10 geometric mean recoverable cfu (S. pyogenes 02C0203 [1]; single oral dose 12.5 mg/kg)	Mean log10 cfu reduction vs. infected controls (S. pyogenes 02C0203 [1]; single oral dose 12.5 mg/kg)	Log10 geometric mean recoverable cfu (S. pyogenes 02C0203 [1]; single oral dose 25 mg/kg)	Mean log10 cfu reduction vs. infected controls (S. pyogenes 02C0203 [1]; single oral dose 25 mg/kg)	Log10 geometric mean recoverable cfu (S. pyogenes 02C0203 [1]; single oral dose 50 mg/kg)	Mean log10 cfu reduction vs. infected controls (S. pyogenes 02C0203 [1]; single oral dose 50 mg/kg)	Log10 geometric mean recoverable cfu (S. pyogenes 02C0203 [1]; single oral dose 100 mg/kg)	Mean log10 cfu reduction vs. infected controls (S. pyogenes 02C0203 [1]; single oral dose 100 mg/kg)	Log10 geometric mean recoverable cfu (S. pyogenes 02C0203 [1]; single oral dose 200 mg/kg)	Mean log10 cfu reduction vs. infected controls (S. pyogenes 02C0203 [1]; single oral dose 200 mg/kg)	antibacterial activity (in words) (S. pyogenes 02C0203 [2])	MIC (S. pyogenes 02C0203 [2])	Target fAUC (S. pyogenes 02C0203 [3])	concentration at 0.5 h [4]	concentration at 1 h [4]	concentration at 2 h [4]	concentration at 4 h [4]	concentration at 8 h [4]	concentration at 24 h [4]	oral exposure (in words) [4]
Cc1cc(-c2cc3c(c(F)c2F)N2C[C@@H](C)O[C@@H](C)[C@@H]2C2(C3)C(=O)NC(=O)NC2=O)on1 (single isomer, unassigned) [Example 2]	6.23	0.47	5.76	0.94	5.07	1.63	2.11	4.59	1.92	4.78	–	–	–	–	–	–	–	–	–	–
Cc1coc(-c2cc(F)c3c(c2)CC2(C(=O)NC(=O)NC2=O)[C@H]2[C@H](C)O[C@H](C)CN32)n1 (single isomer, unassigned) [Example 1]	6.17	0.53	5.45	1.25	4.60	2.10	3.49	3.21	2.85	3.85	antibacterial activity	1 µg/mL (≈ 2.33 µM)	2000 ng·h/mL	13500 ng/mL	13300 ng/mL	21500 ng/mL	24500 ng/mL	7450 ng/mL	176 ng/mL	demonstrated oral exposure
CCc1coc(-c2cc3c(c(F)c2F)N2C[C@H](C)O[C@H](C)[C@H]2C2(C3)C(=O)NC(=O)NC2=O)n1 (racemic) [Example 9, (2S,4R,4aR)-8-(4-ethyloxazol-2-yl)-9,10-difluoro-2,4-dimethyl-2,4,4a,6-tetrahydro-1H,1′H-spiro[[1,4]oxazino[4,3-a]quinoline-5,5′-pyrimidine]-2′,4′,6′(3′H)-trione]	–	–	–	–	–	–	–	–	–	–	antibacterial activity	1 µg/mL (≈ 2.17 µM)	4000 ng·h/mL	19400 ng/mL	19000 ng/mL	23000 ng/mL	22900 ng/mL	18100 ng/mL	2180 ng/mL	demonstrated oral exposure
Cc1ncc(-c2cc3c(cc2F)N2C[C@@H](C)O[C@@H](C)[C@@H]2C2(C3)C(=O)NC(=O)NC2=O)cn1 [Comparator Compound from the Literature, reference compound]	6.48	−0.11	6.52	−0.07	6.48	−0.11	4.62	−1.97	4.32	−2.27	–	2 µg/mL (≈ 4.55 µM)	–	11100 ng/mL	17100 ng/mL	16000 ng/mL	8530 ng/mL	3700 ng/mL	1400 ng/mL	–
